Common to all, as to assay: ≥ marks a high value that may be exact or a test limit, other limits are often not marked, values filed in µg/mL are converted to µM
Test [1] has as its system Escherichia coli NEB5alpha.
Test [2] relates to Bacillus subtilis ATCC 6051.
Test [3] has as its system Escherichia coli BW25113.
For test [4], the system named is Escherichia coli.
In test [5] the test system is Micrococcus luteus ATCC 4698.
For test [6], the system named is Salmonella enterica subsp. enterica serovar Typhimurium ATCC 14028.
Test [7] deals with Pseudomonas aeruginosa ATCC 9027.
In test [8] the test system is Klebsiella pneumoniae ATCC 10031.
Test [9] relates to Shigella dysenteriae ATCC 9752.
Test [10] deals with Bacillus subtilis KCTC 1021.
Test [11] deals with Serratia marcescens.
Test [12] deals with Lacticaseibacillus rhamnosus 7469.
For test [13], the system named is Candida parapsilosis CGMCC 2.3989.
In test [14] the test system is Lactiplantibacillus plantarum 8014.
For test [15], the system named is Staphylococcus epidermidis ATCC 12228.
For test [16], the system named is Candida tropicalis CGMCC 2.1975.
Test [17] deals with Staphylococcus aureus ATCC 25923.
Test [18] relates to Staphylococcus aureus ATCC 29213.
In test [19] the test system is Candida albicans CGMCC 2.2086.
Test [20] concerns Salmonella enterica subsp. enterica serovar Typhimurium C77-31.
Test [21] relates to Escherichia coli ATCC 15597.
Test [22] deals with Bacillus subtilis ATCC 6633.
For test [23], the system named is Klebsiella pneumoniae NCTC 5055.
Test [24] deals with Micrococcus luteus ATCC 49732.
The test system of test [25] is Staphylococcus aureus ATCC 6538.
The subject of test [26] is Pseudomonas aeruginosa ATCC 27853.
For test [27], the system named is Salmonella typhimurium DA6192.

≈ marks a conversion by molar mass, not a printed value. Where only a bound is given, the exact number is not on record here.

What is called MIC is the smallest concentration in the dilution series that meets the test's criterion for growth inhibition. High values mean weaker potency, low ones greater potency.

Take `CC[C@H](C)[C@H](NC(=O)[C@H](CCCN=C(N)N)NC(=O)CNC(=O)[C@H](C)NC(=O)[C@H](CCC(N)=O)NC(=O)[C@@H]1CCCN1C(=O)[C@@H](N)CC(N)=O)C(=O)N[C@@H](CCCCN)C(=O)N[C@H](C(=O)N[C@H](C(=O)N[C@H](C(=O)N[C@@H](CO)C(=O)N[C@@H](Cc1ccccc1)C(=O)N[C@@H](CC(=O)O)C(=O)N[C@@H](CC(C)C)C(=O)N1CCC[C@H]1C(=O)N[C@@H](C)C(=O)N[C@@H](CC(C)C)C(=O)N[C@@H](CCCN=C(N)N)C(=O)N[C@@H](Cc1ccccc1)C(=O)N[C@@H](CC(C)C)C(=O)N[C@@H](CCCCN)C(=O)N[C@@H](CC(C)C)C(=O)O)[C@@H](C)O)C(C)C)[C@@H](C)O` [NPQAGRIKTVTSFDLPALRFLKL]: the MIC in test [1] is at least 250 µM; in [2] it was at least 125 µM.

The compound `CC[C@H](C)[C@H](NC(=O)[C@@H]1CCCN1C(=O)[C@H](CCCN=C(N)N)NC(=O)[C@H](CCCN=C(N)N)NC(=O)[C@H](CCCN=C(N)N)NC(=O)[C@@H](N)CCCN=C(N)N)C(=O)N[C@@H](CCCN=C(N)N)C(=O)N[C@@H](CCCN=C(N)N)C(=O)N[C@@H](CCCN=C(N)N)C(=O)N1CCC[C@H]1C(=O)N[C@H](C(=O)N[C@@H](CCCN=C(N)N)C(=O)N1CCC[C@H]1C(=O)N1CCC[C@H]1C(=O)N[C@@H](Cc1c[nH]c2ccccc12)C(=O)N[C@@H](Cc1ccc(O)cc1)C(=O)N[C@@H](CCCN=C(N)N)C(=O)O)[C@@H](C)CC` [RRRRPIRRRPIRPPWYR] yielded an MIC in [3] of 16 µM (≈ 38.2 µg/mL).

As to `CC[C@H](C)[C@H](NC(=O)CN)C(=O)N[C@@H](CC(C)C)C(=O)N[C@@H](CC(=O)O)C(=O)N[C@H](C(=O)N[C@@H](CC(C)C)C(=O)N[C@@H](CCCCN)C(=O)N[C@@H](CCC(N)=O)C(=O)N[C@@H](Cc1ccccc1)C(=O)N[C@@H](C)C(=O)N[C@@H](CCCCN)C(=O)NCC(=O)N[C@H](C(=O)NCC(=O)N[C@@H](CCCCN)C(=O)N[C@@H](Cc1ccccc1)C(=O)N[C@@H](CC(C)C)C(=O)N[C@H](C(=O)N[C@@H](CCCCN)C(=O)NCC(=O)N[C@@H](C)C(=O)N[C@@H](C)C(=O)N[C@@H](CCC(N)=O)C(=O)O)C(C)C)C(C)C)[C@@H](C)O` [GILDTLKQFAKGVGKFLVKGAAQ], the MIC is 10.5 µM (≈ 25 µg/mL) in test [4]; at least 83.7 µM in test [5]; over 83.7 µM in [6]; 83.7 µM (≈ 200 µg/mL) in [7]; at least 41.8 µM in test [8]; 20.9 µM (≈ 50 µg/mL) in test [9]. Moreover, the MIC in [10] is 10.5 µM (≈ 25 µg/mL); in [11], at least 83.7 µM.

`CC[C@H](C)[C@H](N)C(=O)N[C@@H](Cc1cnc[nH]1)C(=O)N[C@@H](Cc1cnc[nH]1)C(=O)N[C@H](C(=O)N[C@@H](Cc1cnc[nH]1)C(=O)N[C@@H](Cc1cnc[nH]1)C(=O)N[C@@H](Cc1cnc[nH]1)C(=O)N[C@H](C(=O)N[C@@H](Cc1cnc[nH]1)C(=O)N[C@@H](Cc1cnc[nH]1)C(=O)N[C@H](C(=O)N[C@@H](Cc1cnc[nH]1)C(=O)N[C@@H](Cc1cnc[nH]1)C(=O)N[C@@H](Cc1cnc[nH]1)C(=O)N[C@H](C(=O)N[C@@H](Cc1cnc[nH]1)C(=O)N[C@@H](Cc1cnc[nH]1)C(=O)N[C@H](C(=O)N[C@@H](Cc1cnc[nH]1)C(=O)N[C@@H](Cc1cnc[nH]1)C(=O)N[C@@H](Cc1cnc[nH]1)C(=O)N[C@H](C(=O)N[C@@H](Cc1cnc[nH]1)C(=O)N[C@@H](Cc1cnc[nH]1)C(=O)N[C@H](C(=O)N[C@@H](Cc1cnc[nH]1)C(=O)N[C@@H](Cc1cnc[nH]1)C(=O)N[C@@H](Cc1cnc[nH]1)C(N)=O)[C@@H](C)CC)[C@@H](C)CC)[C@@H](C)CC)[C@@H](C)CC)[C@@H](C)CC)[C@@H](C)CC)[C@@H](C)CC` [IHHIHHHIHHIHHHIHHIHHHIHHIHHH]: the MIC is at least 64 µM in test [12]; 2 µM (≈ 7.33 µg/mL) in test [13]; 64 µM (≈ 235 µg/mL) in test [6]; 8 µM (≈ 29.3 µg/mL) in [14]; over 64 µM in [15]; 1 µM (≈ 3.67 µg/mL) in test [16]. Moreover, the MIC in test [17] was over 64 µM; in test [18] it was over 64 µM; in test [19], 2 µM (≈ 7.33 µg/mL); in test [20], at least 64 µM.

As to `CC[C@H](C)[C@H](NC(=O)[C@H](C)NC(=O)CNC(=O)[C@H](CCCCN)NC(=O)[C@H](CCC(=O)O)NC(=O)[C@H](CCC(=O)O)NC(=O)[C@H](CC(=O)O)NC(=O)[C@H](CCC(=O)O)NC(=O)[C@H](CC(N)=O)NC(=O)[C@H](CCCN=C(N)N)NC(=O)CNC(=O)[C@@H](N)CCC(N)=O)C(=O)N[C@H](C(=O)N[C@@H](CCCCN)C(=O)N[C@H](C(=O)N[C@@H](CCCCN)C(=O)O)C(C)C)C(C)C` [QGRNEDEEKGAIVKVK], the MIC in test [1] and in test [2] was at least 1000 µM each time.

For `CC[C@H](C)[C@H](NC(=O)CN)C(=O)N[C@@H](CC(C)C)C(=O)N[C@@H](CC(=O)O)C(=O)N[C@H](C(=O)N[C@@H](CC(C)C)C(=O)N[C@@H](CCCCN)C(=O)N[C@@H](CCC(N)=O)C(=O)N[C@@H](Cc1ccccc1)C(=O)N[C@@H](C)C(=O)N[C@@H](CCCCN)C(=O)NCC(=O)N[C@H](C(=O)NCC(=O)N[C@@H](Cc1c[nH]c2ccccc12)C(=O)N[C@@H](CC(=O)O)C(=O)N[C@@H](CC(C)C)C(=O)N[C@H](C(=O)N[C@@H](CCCCN)C(=O)NCC(=O)N[C@@H](C)C(=O)N[C@@H](C)C(=O)N[C@@H](CCC(N)=O)C(=O)O)C(C)C)C(C)C)[C@@H](C)O` [GILDTLKQFAKGVGWDLVKGAAQ], the MIC was over 82.8 µM in test [4]; at least 82.8 µM in test [5]; over 82.8 µM in [6]; over 82.8 µM in test [7]; at least 82.8 µM in test [8]; at least 82.8 µM in test [9]. The MIC in test [10] and in [11] was at least 82.8 µM in each case.

Consider `CC[C@H](C)[C@H](NC(=O)[C@H](Cc1cnc[nH]1)NC(=O)[C@H](CCCN=C(N)N)NC(=O)[C@H](CC(N)=O)NC(=O)[C@@H](NC(=O)[C@@H](N)CC(N)=O)C(C)C)C(=O)N[C@H](C(=O)N[C@@H](CC(=O)O)C(=O)N[C@@H](CCCCN)C(=O)N[C@@H](CC(C)C)C(=O)O)C(C)C` [NVNRHIVDKL], for which the MIC in test [1] and in test [2] was at least 1000 µM in each case.

Consider `CC[C@H](C)[C@H](N)C(=O)N[C@H](C(=O)N[C@@H](CCC(=O)O)C(=O)N[C@H](C(=O)N[C@H](C(=O)N[C@H](C(=O)N[C@H](C(=O)N[C@@H](CC(C)C)C(=O)N[C@@H](CC(C)C)C(=O)N[C@@H](CC(N)=O)C(=O)N[C@@H](CCCN=C(N)N)C(=O)N[C@@H](CC(C)C)C(=O)N[C@H](C(=O)N[C@@H](CC(=O)O)C(=O)N[C@@H](CCCN=C(N)N)C(=O)N[C@@H](CC(C)C)C(=O)N[C@@H](CCC(=O)O)C(=O)N[C@@H](CCCCN)C(=O)O)[C@@H](C)O)[C@@H](C)CC)[C@@H](C)O)[C@@H](C)CC)C(C)C)[C@@H](C)O` [ITEVITILLNRLTDRLEK], for which the MIC in [21] was at least 100 µM; in test [22] it was at least 100 µM; in test [23], at least 100 µM; in [24], at least 100 µM; in test [25], over 100 µM; in [26], over 100 µM. For the same compound, the MIC in [27] is at least 100 µM.

Values taken from DBAASP.
